The numbers were not newly measured in US20100004191A1, “Compositions of S-adenosyl-L-methionine” (priority 2008, published 2010), which cites them from elsewhere.

Each structure is given as a SMILES string.

The subject of data set [1] is alcoholic liver cirrhosis. The note with it: oral; patients with alcoholic liver cirrhosis; compared with placebo treated group.
In data set [2] the test system is beta-adrenergic. The conditions noted are these: L-form vs D-enantiomer.

Consider `C[S+](CC[C@H](N)C(=O)[O-])C[C@H]1O[C@@H](n2cnc3c(N)ncnc32)[C@H](O)[C@@H]1O` (stereo partly drawn) [S-adenosyl-L-methionine], for which the “overall mortality and/or progression to liver transplant” value in data set [1] is given as 29%.

As to `CC(C)NCC(O)COc1cccc2ccccc12` (centres unmarked) [propranolol], in data set [2], the “potency relative to the D-enantiomer” value is listed as 100 times.
